Source: PubChem BioAssay AID248 (DTP/NCI, 2004)
Values joined by “and” are separate entries in the source; they are usually repeats but may differ in a detail not shown here. Identical values can stand only once. Inconclusive results and toxic doses are left out. No stated cut-off is given here; in the data, active means T/C of 150% or more; inactive means T/C below 125%.

Test system: L1210 leukemia ip in BDF1 mice, survival T/C
Assay: NCI In Vivo Anticancer Drug Screen. Data for tumor model L1210 Leukemia (intraperitoneal) in B6D2F1 (BDF1) mice
Settings: endpoint: mean survival time, higher = longer survival
Procedure, shortened: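 Antitumor effect is assessed in tumor-bearing animals. Survival in the compound arm is compared with a vehicle-dosed control arm and expressed as their quotient.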

[1] = dose: 100.0 mg/kg/injection, schedule: Q01DX001 (ip), vehicle: saline
[2] = dose: 200.0 mg/kg/injection, schedule: Q01DX001 (ip), vehicle: saline
[3] = dose: 400.0 mg/kg/injection, schedule: Q01DX001 (ip), vehicle: saline
[4] = dose: 100.0 mg/kg/injection, schedule: Q04DX002 (ip), vehicle: saline with Tween-80
[5] = dose: 100.0 mg/kg/injection, schedule: Q04DX003 (ip), vehicle: saline
[6] = dose: 200.0 mg/kg/injection, schedule: Q04DX002 (ip), vehicle: saline with Tween-80
[7] = dose: 200.0 mg/kg/injection, schedule: Q04DX003 (ip), vehicle: saline
[8] = dose: 400.0 mg/kg/injection, schedule: Q04DX002 (ip), vehicle: saline with Tween-80
[9] = dose: 400.0 mg/kg/injection, schedule: Q04DX003 (ip), vehicle: saline
[10] = dose: 100.0 mg/kg/injection, schedule: Q04DX003 (ip), vehicle: saline with Tween-80
[11] = dose: 200.0 mg/kg/injection, schedule: Q04DX003 (ip), vehicle: saline with Tween-80
[12] = dose: 400.0 mg/kg/injection, schedule: Q04DX003 (ip), vehicle: saline with Tween-80
[13] = dose: 100.0 mg/kg/injection, schedule: Q01DX009 (ip), vehicle: saline with Tween-80
[14] = dose: 200.0 mg/kg/injection, schedule: Q01DX009 (ip), vehicle: saline with Tween-80
[15] = dose: 400.0 mg/kg/injection, schedule: Q01DX009 (ip), vehicle: saline with Tween-80
[16] = dose: 100.0 mg/kg/injection, schedule: Q01DX001 (ip), vehicle: Klucel (hydroxypropylcellulose) (HPC)
[17] = dose: 200.0 mg/kg/injection, schedule: Q01DX001 (ip), vehicle: Klucel (hydroxypropylcellulose) (HPC)
[18] = dose: 400.0 mg/kg/injection, schedule: Q01DX001 (ip), vehicle: Klucel (hydroxypropylcellulose) (HPC)

Measured: T/C

O=C(COc1ccc(Cl)cc1)C1CSc2ccc(Br)cc21 (configuration not stated)
inactive: dose: 100.0 mg/kg/injection, schedule: Q04DX003 (ip), vehicle: saline sonified 89 % of control | dose: 200.0 mg/kg/injection, schedule: Q04DX003 (ip), vehicle: saline sonified 101 % of control | dose: 400.0 mg/kg/injection, schedule: Q04DX003 (ip), vehicle: saline sonified 92 % of control

OCn1cnc2c(SC3CCCC3)ncnc21
active: dose: 88.0 mg/kg/injection, schedule: Q01DX009 (ip), vehicle: Klucel (hydroxypropylcellulose) (HPC) 154 % of control | dose: 120.0 mg/kg/injection, schedule: Q01DX015 (ip), vehicle: saline 153 % of control | dose: 180.0 mg/kg/injection, schedule: Q01DX009 (ip), vehicle: other 152 % of control | dose: 180.0 mg/kg/injection, schedule: Q01DX015 (ip), vehicle: saline 161 % of control
inactive: dose: 35.0 mg/kg/injection, schedule: Q01DX015 (ip), vehicle: saline 114 % of control | dose: 50.0 mg/kg/injection, schedule: Q01DX009 (ip), vehicle: saline 112 % of control | dose: 50.0 mg/kg/injection, schedule: Q01DX015 (ip), vehicle: saline 123 % of control | dose: 80.0 mg/kg/injection, schedule: Q01DX009 (ip), vehicle: saline 119 % of control | [1] 88 % of control | [2] 104 % of control | dose: 200.0 mg/kg/injection, schedule: Q01DX009 (ip), vehicle: Klucel (hydroxypropylcellulose) (HPC) 92 % of control | dose: 270.0 mg/kg/injection, schedule: Q01DX015 (ip), vehicle: saline 113 % of control | [3] 111 % of control

CC(C)(CCN(CC(=O)O)CC(=O)O)[N+](=O)[O-]
inactive: [1] 112 % of control | [2] 96 % of control | [3] 102 % of control

c1nc(SC2CCCC2)c2[nH]cnc2n1
inactive: dose: 5.0 mg/kg/injection, schedule: Q01DX Z (ip), vehicle: carboxymethylcellulose (CMC) 106 % of control | dose: 10.0 mg/kg/injection, schedule: Q01DX Z (ip), vehicle: carboxymethylcellulose (CMC) 103 % of control | dose: 10.0 mg/kg/injection, schedule: Q01DX Z (oral), vehicle: carboxymethylcellulose (CMC) 108 % of control | dose: 21.0 mg/kg/injection, schedule: Q01DX Z (ip), vehicle: carboxymethylcellulose (CMC) 112 % of control | dose: 21.0 mg/kg/injection, schedule: Q01DX Z (oral), vehicle: carboxymethylcellulose (CMC) 108 % of control | dose: 25.0 mg/kg/injection, schedule: Q01DX009 (ip), vehicle: carboxymethylcellulose (CMC) 115 % of control | dose: 42.0 mg/kg/injection, schedule: Q01DX Z (ip), vehicle: carboxymethylcellulose (CMC) 112 % of control | dose: 42.0 mg/kg/injection, schedule: Q01DX Z (oral), vehicle: carboxymethylcellulose (CMC) 106 % of control | dose: 42.5 mg/kg/injection, schedule: Q01DX Z (ip), vehicle: carboxymethylcellulose (CMC) 122 % of control | dose: 50.0 mg/kg/injection, schedule: Q01DX009 (ip), vehicle: carboxymethylcellulose (CMC) 119 % of control | dose: 176.0 mg/kg/injection, schedule: Q01DX001 (ip), vehicle: carboxymethylcellulose (CMC) 98 % of control | dose: 264.0 mg/kg/injection, schedule: Q01DX001 (ip), vehicle: carboxymethylcellulose (CMC) 100 % of control | dose: 340.0 mg/kg/injection, schedule: Q01DX Z (ip), vehicle: carboxymethylcellulose (CMC) 110 % of control | dose: 400.0 mg/kg/injection, schedule: Q01DX001 (ip), vehicle: carboxymethylcellulose (CMC) 93 % of control
active: dose: 84.0 mg/kg/injection, schedule: Q01DX Z (oral), vehicle: carboxymethylcellulose (CMC) 150 % of control | dose: 85.0 mg/kg/injection, schedule: Q01DX Z (ip), vehicle: carboxymethylcellulose (CMC) 163 % of control | dose: 340.0 mg/kg/injection, schedule: Q01DX Z (oral), vehicle: carboxymethylcellulose (CMC) 152 % of control

CNC(=O)c1ccc(/C=C/c2c[nH]c3ccccc23)[n+](C)c1
inactive: [1] 97 % of control | [2] 95 % of control

O=C1/C(=C\c2ccccc2)N2CCC1CC2
inactive: [4] 87 % of control | [5] 103 % of control | [6] 91 % of control | [7] 108 % of control | [8] 87 % of control | [9] 103 % of control

CC(=O)OCC1OC(n2cc(C)c(=O)[nH]c2=O)CC1OC(C)=O (configuration not stated)
inactive: dose: 684.0 mg/kg/injection, schedule: Q02DX010 (ip), vehicle: other 99 % of control | dose: 1368.0 mg/kg/injection, schedule: Q02DX010 (ip), vehicle: other 105 % of control | dose: 2052.0 mg/kg/injection, schedule: Q02DX010 (ip), vehicle: other 96 % of control

CN(C)CCCN=Cc1ccc(O)cc1O.CN(C)CCCN=Cc1ccc(O)cc1O.[Ni+2]
inactive: dose: 25.0 mg/kg/injection, schedule: Q04DX003 (ip), vehicle: saline with Tween-80 91 % of control | dose: 50.0 mg/kg/injection, schedule: Q04DX003 (ip), vehicle: saline with Tween-80 91 % of control | [10] 89 % of control

CC(=O)NC(C)C
inactive: [10] 93 % of control | [11] 100 % of control | [12] 96 % of control

CC(C)OC(=O)C#CC(=O)O
inactive: [1] 98 % of control

CC(C)(C)SC(C)(C)C
inactive: [13] 96 % of control | [14] 96 % of control | [15] 96 % of control

CCOC(=O)CCN1CCCC1
inactive: dose: 100.0 mg/kg/injection, schedule: Q01DX009 (ip), vehicle: saline 110 % of control | [5] 94 % of control | dose: 200.0 mg/kg/injection, schedule: Q01DX009 (ip), vehicle: saline 106 % of control | [7] 103 % of control | dose: 400.0 mg/kg/injection, schedule: Q01DX009 (ip), vehicle: saline 105 % of control | [9] 103 % of control

Cc1cccc(C)c1NC(=S)NC1CC(C)CC(C)(C)C1 (configuration not stated)
inactive: dose: 12.5 mg/kg/injection, schedule: Q01DX009 (ip), vehicle: Klucel (hydroxypropylcellulose) (HPC) 100 % of control | dose: 25.0 mg/kg/injection, schedule: Q01DX009 (ip), vehicle: Klucel (hydroxypropylcellulose) (HPC) 109 % of control | dose: 50.0 mg/kg/injection, schedule: Q01DX009 (ip), vehicle: Klucel (hydroxypropylcellulose) (HPC) 96 % of control

O=C(/C=C/c1cccc2ccccc12)c1ccccc1[N+](=O)[O-]
inactive: dose: 100.0 mg/kg/injection, schedule: Q01DX001 (ip), vehicle: saline with Tween-80 96 % of control | [13] 96 % of control and 87 % of control | [4] 88 % of control | [10] 96 % of control | dose: 200.0 mg/kg/injection, schedule: Q01DX001 (ip), vehicle: saline with Tween-80 96 % of control | [14] 89 % of control and 90 % of control | [6] 90 % of control | [11] 90 % of control | dose: 400.0 mg/kg/injection, schedule: Q01DX001 (ip), vehicle: saline with Tween-80 91 % of control | [15] 86 % of control and 90 % of control | [8] 88 % of control and 90 % of control | [12] 91 % of control

CC(C)NC(C)C
inactive: [16] 104 % of control | [17] 101 % of control | [18] 107 % of control

O=C(CN1CCOCC1)Nc1cccc(C(F)(F)F)c1
inactive: [13] 96 % of control | [10] 101 % of control | [14] 104 % of control | [11] 111 % of control | [15] 109 % of control | [12] 97 % of control

O=[N+]([O-])c1ccc(Sc2ccc([N+](=O)[O-])cc2)cc1
inactive: dose: 50.0 mg/kg/injection, schedule: Q01DX009 (ip), vehicle: saline with Tween-80 92 % of control | [13] 91 % of control | [14] 89 % of control

COC1C(COC(C)=O)OC(n2cnc3c(=O)[nH]cnc32)C1OC(C)=O (configuration not stated)
inactive: [1] 112 % of control | [2] 108 % of control | [3] 103 % of control

O=C(O)C(CSCc1ccccc1)NSc1ccccc1[N+](=O)[O-] (configuration not stated)
inactive: [16] 105 % of control | [5] 97 % of control | [17] 105 % of control | [7] 95 % of control | [18] 101 % of control | [9] 106 % of control

CCN(CC)CCCC(C)NC(=O)c1cccc2c([N+](=O)[O-])cccc12 (configuration not stated)
inactive: dose: 25.0 mg/kg/injection, schedule: Q01DX009 (ip), vehicle: water 100 % of control | dose: 50.0 mg/kg/injection, schedule: Q01DX009 (ip), vehicle: water 108 % of control | dose: 100.0 mg/kg/injection, schedule: Q01DX009 (ip), vehicle: water 103 % of control
